Molecules are shown by their SMILES. Values joined by “and” are separate entries in the source; they are usually repeats but may differ in a detail not shown here. Identical values can stand only once.

The assay addresses T1, NS3 protease (dengue virus type 1, UniProt A0A0K0TQ28).
T1 sequence (A0A0K0TQ28 whole entry): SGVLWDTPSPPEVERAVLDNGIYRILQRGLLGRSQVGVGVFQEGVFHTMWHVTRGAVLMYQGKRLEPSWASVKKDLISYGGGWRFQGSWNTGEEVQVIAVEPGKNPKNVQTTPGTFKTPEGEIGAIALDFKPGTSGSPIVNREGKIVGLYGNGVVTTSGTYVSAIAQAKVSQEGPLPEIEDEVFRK
As to the kind of experiment: Functional biochemical assay to identify treatments for viral infectious disease that targets Dengue virus type 1 NS2B-NS3 protease. Utilizing a direct enzyme activity measurement method, reading the fluorescence intensity is used to characterize the relative potency of inhibitors as IC50. Set-up: species or system Nauru/West Pac/1974.
Take `N=C(N)NCCC[C@H](NC(=O)c1nccs1)C(=O)N[C@@H](CCCCN)C(=O)N[C@@H](C(N)=O)c1ccc(OCc2ccc(C(F)(F)F)cc2)cc1`: the 50% inhibitory concentration (IC50) was 920 nM and 1.03 µM (2×) and 1 µM and 926 nM and 1.69 µM and 865 nM. On to `N=C(N)NCCC[C@H](NC(=O)[C@H](Cc1ccc(CN)cc1)NC(=O)c1ccccc1)B(O)O`, for which the IC50 was 0.31 µM and 0.315 µM. The same measure for `COCCNC(=O)[C@H](Nc1ccc2c(c1)CNC2)c1cc(Cl)cc(C2CC2)c1`: over 99.5 µM; for `O=C(NCC(F)F)[C@H](Nc1ccc2c(c1)CNC2)c1cc(Cl)cc(C2CC2)c1`: over 99.5 µM; for `O=C(Nc1ccc2c(c1)CNCC2)c1cc(Cl)cc2[nH]ncc12`: over 99.5 µM.

For the molecule `CC(C)(C)c1cc(Br)cc(C(=O)Nc2ccc3c(c2)CNC3)c1`, the IC50 is over 99.5 µM. The same measure for `Clc1ccc2[nH]cc(Cc3ccc(-c4nn[nH]n4)cc3)c2c1`: 62.9 µM.

As to `CN1Cc2ccc(NC(=O)c3cc(Cl)cc4[nH]ncc34)cc2C1`, the IC50 is over 99.5 µM. `O=C(Nc1ccc2c(c1)CNC2)c1cccc(-c2cnco2)c1` returned an IC50 of 20.3 µM. With `CC(C)NC(=O)[C@H](Nc1ccc2c(c1)CNC2)c1cc(Cl)cc2[nH]ncc12` the figure was 34.4 µM; with `Cn1cc2cc(Cl)cc(C(=O)Nc3ccc4c(c3)CNC4)c2n1`, over 99.5 µM; with `O=C(Nc1ccc2c(c1)CNC2)c1cc(Br)cc2ccccc12`, 83.7 µM. For the molecule `O=C(Nc1ccc2c(c1)CNC2)c1cc(Cl)cc2c1CCC2`, the IC50 was over 99.5 µM. For the molecule `CNC(=O)[C@H](Nc1ccc2c(c1)CNC2)c1cc(Cl)cc(C2CC2)c1`, the IC50 is over 99.5 µM. As to `O=C1Cc2c(cccc2C(=O)Nc2ccc3c(c2)CNC3)N1`, the 50% inhibitory concentration (IC50) turned out to be 11.3 µM. For the molecule `O=C(Nc1ccc2c(c1)CNC2)c1cc(Br)cc2[nH]c(-c3ccccc3)nc12`, the IC50 is 1.24 µM. Molecule `N#C[C@H](Nc1ccc2c(c1)CNC2)c1cc(Cl)cc(C2CC2)c1` came in with a half-maximal inhibitory concentration (IC50) of over 99.5 µM.

Consider `O=C(Nc1cc(Cl)cc([C@H]2CN(Cc3ccccc3)C[C@@H]2c2cccc(-c3nn[nH]n3)c2)c1)OCc1ccccc1`, for which half-maximal inhibition (IC50) required 6.63 µM. Turning to `Clc1cc(CNc2ccc3c(c2)CNC3)c2cn[nH]c2c1`, the half-inhibitory concentration (IC50) turned out to be 30.9 µM. The same measure for `CC(C)c1cc(Br)cc(C(=O)Nc2ccc3c(c2)CNC3)c1`: over 99.5 µM. In turn, `O=C(NC1CCOCC1)[C@H](Nc1ccc2c(c1)CNC2)c1cc(Cl)cc(C2CC2)c1` had an IC50 of over 99.5 µM. The molecule `Cn1cc(CNC(=O)[C@H](Nc2ccc3c(c2)CNC3)c2cc(Cl)cc(C3CC3)c2)cn1` gave a half-maximal inhibitory concentration (IC50) of over 99.5 µM. `O=C(Nc1cc(Cl)cc(C(=O)Nc2ccc3c(c2)CNC3)c1)OCc1ccccc1`: the IC50 was over 99.5 µM. `Cn1cc(CCc2nc3c(C(=O)Nc4ccc5c(c4)CNC5)cc(Cl)cc3[nH]2)cn1` came in with an IC50 of 21.6 µM. The molecule `O=C(Nc1ccc2c(c1)CNC2)c1cc(F)cc2[nH]ncc12` registered an IC50 of 68.2 µM. For the molecule `Cc1c(C(=O)Nc2cc([C@H]3CCOC3)ccn2)cc(C2CC2)n1C`, the 50% inhibitory concentration (IC50) was over 99.5 µM. Molecule `O=C(Nc1ccc2c(c1)CNC2)c1cc(Cl)cc2ccncc12` returned an IC50 of over 99.5 µM. `O=C1Cc2c(cc(Br)cc2C(=O)Nc2ccc3c(c2)CNC3)N1` had an IC50 of 84.6 µM. In the case of `CC(C)NC(=O)[C@H](Nc1ccc2c(c1)CNC2)c1cc(Cl)cc2[nH]c(-c3ccccc3)nc12`, the concentration for half-maximal inhibition (IC50) was 7.46 µM and 2.06 µM. The molecule `O=C(Nc1cc(Cl)cc([C@H](C#CCO)Nc2cccc(-c3nn[nH]n3)c2)c1)OCc1ccccc1` returned a half-inhibitory concentration (IC50) of 12.7 µM.

In turn, `O=C(Nc1ccc2c(c1)CNC2)c1cccc2[nH]c(C(F)(F)F)cc12` displayed an IC50 of over 99.5 µM. The same measure for `O=C(Nc1ccc2c(c1)CNC2)c1cc(Cl)cc2cn[nH]c12`: over 99.5 µM; for `N#Cc1cccc(-c2nc3c(C(=O)Nc4ccc5c(c4)CNC5)cc(F)cc3[nH]2)c1`: 2.41 µM. For the molecule `NCc1cccc([C@H]2C[C@@H]2c2cc(Cl)cc(NC(=O)OCc3ccccc3)c2)c1`, the IC50 was determined as 25.3 µM. In turn, `C=CC[C@H]1NCc2cc(NC(=O)c3cccc4c3CC(=O)N4)ccc21` showed an IC50 of over 99.5 µM. `N#C[C@H](Nc1cccc(-c2nn[nH]n2)c1)c1cc(Cl)cc(NC(=O)OCc2ccccc2)c1` displayed an IC50 of 10 µM. The same measure for `O=C(Nc1ccc2c(c1)CNC2)c1cc(Cl)cc2[nH]ncc12`: 69.2 µM; for `O=C(Nc1ccc2c(c1)CNC2)c1cc(Br)cc2[nH]c(=O)[nH]c12`: 32.7 µM; for `N#C[C@H](Nc1ccc2c(c1)CNC2)c1cc(Cl)cc2[nH]ncc12`: over 99.5 µM. The molecule `O=C(Nc1cc(Cl)cc(C(=O)Nc2cccc([C@H]3C[C@H]3C(=O)O)c2)c1)OCc1ccccc1` returned a half-inhibitory concentration (IC50) of 25.2 µM.

Regarding `Clc1cc([C@@H]2C[C@H]2c2cccc(C3CCNCC3)c2)c2cn[nH]c2c1`, the IC50 was 5.94 µM. On to `Cc1c(C(=O)Nc2cc(-c3cccnc3)ccn2)cc(C2CC2)n1C`, for which the IC50 was 4.83 µM. The IC50 values of the last two molecules are within 1.5-fold of each other. For the molecule `O=C(NCC(F)F)[C@H](Nc1ccc2c(c1)CNC2)c1cc(F)cc2[nH]ccc12`, the IC50 was over 99.5 µM. The same measure for `C=CC[C@H]1NCc2cc(NC(=O)c3cc(Cl)cc4[nH]ncc34)ccc21`: over 99.5 µM; for `Cc1nc2c(C(=O)Nc3ccc4c(c3)CNC4)cc(Cl)cc2[nH]1`: over 99.5 µM. The same measure for `O=C(Nc1cc(Cl)cc(-c2ccc3[nH]c(C(=O)O)cc3c2)c1)OCc1ccccc1`: 5.82 µM; for `O=C(NCCC1CC1)[C@H](Nc1ccc2c(c1)CNC2)c1cc(Cl)cc(C2CC2)c1`: over 99.5 µM; for `N#Cc1cc2c(cc1NC(=O)c1cc(F)cc3[nH]ncc13)CNC2`: 59.7 µM. In turn, `O=C(Nc1ccc2c(c1)CNC2)c1cc(Cl)cc2cc[nH]c12` had a half-maximal inhibitory concentration (IC50) of over 99.5 µM. `C=CC[C@H]1NCc2cc(NC(=O)c3cc(F)cc4[nH]ncc34)ccc21` came in with an IC50 of over 99.5 µM.

Molecule `O=C(Nc1cc(Br)c2c(c1)CNC2)c1cc(F)cc2[nH]ncc12` came in with a concentration for half-maximal inhibition (IC50) of 75.5 µM.

`C=CC[C@H](Nc1cc(Cl)cc(NC(=O)OCc2ccccc2)c1)c1cccc(-c2nn[nH]n2)c1`: 6.41 µM corresponded to half-maximal inhibition (IC50). With `CNC(=O)[C@H](Nc1cc(CN)cc(C(=O)O)c1)c1cc(Cl)cc(C2CC2)c1`, the IC50 is over 99.5 µM. `O=C(NCC(F)F)[C@H](Nc1ccc2c(c1)CNC2)c1cc(F)cc2[nH]ncc12`: the half-inhibitory concentration (IC50) is over 99.5 µM. `O=C1Cc2c(cc(F)cc2C(=O)Nc2ccc3c(c2)CNC3)N1` yielded an IC50 of 36.2 µM. Turning to `O=C(Nc1cc(Cl)cc([C@H]2C[C@@H]2c2cccc(C3CCNCC3)c2)c1)OCc1ccccc1`, half-maximal inhibition (IC50) was put at 6.28 µM. Regarding `CC(C)CNC(=O)c1cc(Cl)ccc1NS(=O)(=O)c1ccc(Oc2ccccc2Cl)cc1`, the 50% inhibitory concentration (IC50) turned out to be 14.4 µM.

`C=CC[C@H]1NCc2cc(N[C@H](C(=O)NC(C)C)c3cc(Cl)cc4[nH]ncc34)ccc21` had a concentration for half-maximal inhibition (IC50) of 81.8 µM. The molecule `O=C(NC1CCOCC1)[C@H](Nc1ccc2c(c1)CNC2)c1cc(Cl)cc2[nH]ncc12` registered a concentration for half-maximal inhibition (IC50) of over 99.5 µM. Consider `CNC(=O)[C@H](Nc1cc(Cl)cc(NC(=O)OCc2ccccc2)c1)c1cccc(-c2nn[nH]n2)c1`, for which the IC50 worked out at 46.5 µM. Molecule `O=C(Nc1ccc2c(c1)CNC2)c1cc(F)c2[nH]ccc2c1` showed a half-maximal inhibitory concentration (IC50) of over 99.5 µM. Molecule `N[C@H]1CC[C@H](c2ccc(NC(=O)c3cc(Cl)cc(NC(=O)OCc4ccccc4)c3)cc2)C1` gave an IC50 of 8.49 µM. `Cn1c(=O)[nH]c2c(C(=O)Nc3ccc4c(c3)CNC4)cc(Br)cc21` displayed a half-maximal inhibitory concentration (IC50) of over 99.5 µM.

`OCC#C[C@H](Nc1ccc2c(c1)CNC2)c1cc(Cl)cc2[nH]ncc12`: the 50% inhibitory concentration (IC50) was 19.4 µM. With `O=C(Nc1ccc2c(c1)CNC2)c1cc(F)cc2c1CCC2`, the 50% inhibitory concentration (IC50) was over 99.5 µM. `NCc1cccc(NC(=O)c2cc(Cl)cc(NC(=O)OCc3ccccc3)c2)c1`: it took 51.1 µM to reach half-maximal inhibition (IC50). That is a double-digit micromolar value. In turn, `c1cc(C2CCN(Cc3c[nH]c4ccccc34)CC2)c2ccncc2c1` came in with a half-inhibitory concentration (IC50) of over 99.5 µM. For the molecule `Cc1cccc(-c2nc3c(C(=O)Nc4ccc5c(c4)CNC5)cc(Cl)cc3[nH]2)c1O`, the IC50 was found to be 4.26 µM. This lies in the single-digit micromolar range. Molecule `O=C(Nc1ccc2c(c1)CNC2)c1cccc2[nH]c(=O)[nH]c12` had an IC50 of 65.5 µM. With `O=C(Nc1ccc2c(c1)CNC2)c1cc(Cl)cc(C(F)(F)F)n1` the figure was 7.25 µM; with `O=C(Nc1ccc2c(c1)CNC2)c1cc(F)cc2[nH]c(-c3ccc(F)cc3)nc12`, 2.8 µM; with `CCc1cc(C(=O)Nc2cccc(-n3nn[nH]c3=O)c2)sc1-c1ccc(Cl)cc1`, 11.4 µM.

`Cc1c(C(=O)Nc2cc(CCCN)ccn2)cc(C2CC2)n1C` gave an IC50 of 25.5 µM. In turn, `O=C(Nc1ccc2c(c1)CNC2)c1cccc2nc(O)ccc12` gave an IC50 of over 99.5 µM.

`NCc1ccc([C@H]2C[C@@H]2c2cc(Cl)cc(NC(=O)OCc3ccccc3)c2)cc1` registered a half-maximal inhibitory concentration (IC50) of 8.89 µM. With `CCOCCNC(=O)[C@H](Nc1ccc2c(c1)CNC2)c1cc(Cl)cc2[nH]ncc12` the figure was over 99.5 µM.

In turn, `O=C(Nc1cc(Cl)cc(C(=O)Nc2ccc3c(c2)CCNC3)c1)OCc1ccccc1` came in with a 50% inhibitory concentration (IC50) of 47.7 µM. Turning to `O=C1Cc2cc(C(=O)Nc3ccc4c(c3)CNC4)ccc2N1`, the 50% inhibitory concentration (IC50) was 5.26 µM and 4.47 µM. `Cc1ccc(NC(=O)c2cc(Cl)cc(NC(=O)OCc3ccccc3)c2)cc1CN` yielded an IC50 of over 99.5 µM. `O=C(Nc1ccc2c(c1)CNC2)c1cc(F)cc2[nH]c(-c3ccccc3)nc12` showed a half-maximal inhibitory concentration (IC50) of 3.67 µM.

`O=C(Nc1ccc2c(c1)CNC2)c1cc(Cl)cc2nn(-c3ccccc3)nc12` showed a half-inhibitory concentration (IC50) of 2.69 µM. In turn, `Cc1[nH]c2ccccc2c1CN1CCC(c2c[nH]c3ncccc23)CC1` returned an IC50 of over 99.5 µM. Turning to `O=C(Nc1ccc2c(c1)CNC2)c1cccc2cn[nH]c12`, the IC50 was determined as 49.9 µM. For the molecule `O=C(Nc1cc2c(cc1Br)CNC2)c1cc(F)cc2[nH]ncc12`, the IC50 is over 99.5 µM.

As for `O=C(Nc1ccc2c(c1)CNC2)c1ccc2[nH]ccc2c1`, the IC50 is over 99.5 µM.

`CNC(=O)[C@H](Nc1cc(CN)cc(-c2nn[nH]n2)c1)c1cc(Cl)cc(C2CC2)c1`: the IC50 is over 99.5 µM. The same measure for `O=C(Nc1cc(Cl)cc(C(=O)Nc2cccc(-n3nn[nH]c3=O)c2)c1)OCc1ccccc1`: 11.6 µM.

What is called IC50 is the concentration at which inhibition is half-maximal. The low end stands for inhibition by little substance, the high end for a need for much substance.

The record behind these values is ChEMBL document CHEMBL5604064, “ASAP - DENV-1 NS2B-NS3 protease fluorescence dose response” (2024).
